The text below walks through data of patent US20260199234A1, “PHARMACEUTICAL COMPOSITIONS OF POLYMERIC MICELLAR CINACALCET, AND METHODS OF PREPARATION AND USE THEREOF” (HANGZHOU SHIXI PHARMACEUTICAL TECHNOLOGY CO., LTD., priority 2023, published 2026).

For series [1] the following is noted: oral, fasted subjects; cited from earlier work.
A short description of series [2]: Unbound cinacalcet fraction in plasma (30 kD ultrafiltration, RP-HPLC). The series is classed as in vitro ADME, rabbit. The note with it: Recon conc. 1 mg/ml. As for the experimental part: The unbound cinacalcet fractions in plasma were determined. The cinacalcet buffer solution and cinacalcet polymer micelles were mixed with rabbit plasma at 1:4 ratio, incubated at 37° C., and filtered through 30 kD ultrafiltration membrane. The filtrate and unfiltered plasma were mixed with acetonitrile at a ratio of 1:4, and the cinacalcet concentrations were determined by an RP-HPLC. Table 10 presents unbound (filtered) and total (unfiltered) cinacalcet concentrations, and calculated % unbound fractions (unbound concentration divided by total concentration).

In the case of `C[C@@H](NCCCc1cccc(C(F)(F)F)c1)c1cccc2ccccc12` [cinacalcet], the Absolute bioavailability in series [1] is 20-25%. Moreover, in series [2] (1:4 with rabbit plasma, 37° C.), the Total conc. is recorded as 0.84 ± 0.01 mg/mL. In addition, the Unbound concentration in series [2] (5 min) was 92 ± 16 µg/mL. For the same molecule, the fraction unbound at 5 min, 0.2 mg/mL in series [2] (rabbit, rabbit plasma, 5 min) is 0.11.
